Measurements: patent publication US6264935A, “Ophthalmic composition containing a carbonic anhydrase inhibitor and xanthan gum” (priority 1996, dated 2001)
“Also recorded” adds a separate entry of the source.

How the values were obtained:
[1] = background; result in words; cited from earlier work
[2] = rabbit, in vivo

Compound | reduction of intraocular pressure [1] | side effects / local effects [1] | duration of activity and loss of effect [1] | change in ocular bioavailability compared with the TRUSOPT formulation [2]
CC[C@@H]1C(=O)OC[C@@H]1Cc1cncn1C [pilocarpine] | reduce intraocular pressure | undesirable local effects | – | –
CC(C)(C)NC[C@H](O)COc1nsnc1N1CCOCC1 [timolol] | found to reduce intraocular pressure | devoid of many unwanted side effects associated with pilocarpine; also recorded: devoid of local anaesthetic properties | long duration of activity; also recorded: minimal loss of effect with increased duration of dosing | –
cyclodextrin | – | – | – | only minor changes in bioavailability
polyvinyl alcohol | – | – | – | only minor changes in bioavailability
